# Laboratory results taken from BindingDB's records for doi:10.1021/jm991125l (Institut Curie, 2000).
# Assay: Effective concentration required to achieve 50% inhibition of HIV-1 LAI replication in human T4 lymphoblastoid CEM-SS cells.
row,EC50,Structure (SMILES)
1,2.8 µM,CCc1c(Sc2cc(C)cc(C)c2)n(CCCCC(=O)NCCCCCCCCCCNC(=O)CCn2c(=O)c(C)cn(C3CC(N=[N+]=[N-])C(CO)O3)c2=O)c(=O)[nH]c1=O (configuration not stated)
2,> 100 µM,[N-]=[N+]=NC1CC(n2cc(CCC(=O)NCCCCN)c(=O)[nH]c2=O)OC1CO (configuration not stated)
3,0.43 µM,CCc1c(Sc2cc(C)cc(C)c2)n(CCCCC(=O)NCCCCCCCCCCCCNc2ccn(C3CCC(CO)O3)c(=O)n2)c(=O)[nH]c1=O (configuration not stated)
4,70 µM,CCc1c(C)[nH]c(=O)c(NC(=O)CCCCCCCCC(=O)O)c1Cc1cc(C)cc(C)c1
5,0.8 µM,CCOC(=O)CCn1c(=O)c(C)cn(C2CC(N=[N+]=[N-])C(CO)O2)c1=O (configuration not stated)
6,4.5 µM,CCc1c(C)[nH]c(=O)c(NC(=O)CCCC(=O)O)c1Cc1cc(C)cc(C)c1
7,58 µM,CCc1c(C)[nH]c(=O)c(NC(=O)CCCCCCCCCN)c1Cc1cc(C)cc(C)c1
8,> 100 µM,COC(=O)CCc1cn(C2CC(N=[N+]=[N-])C(CO)O2)c(=O)[nH]c1=O (configuration not stated)
9,0.031 µM,Nc1ccn([C@H]2CC[C@@H](CO)O2)c(=O)n1 [Dideoxycytidine]
10,0.025 µM,CCc1c(Sc2cc(C)cc(C)c2)n(CCCCC(=O)OC)c(=O)[nH]c1=O
11,> 10 µM,CCc1c(C)[nH]c(=O)c(NC(=O)CCCCCCCCCNC(=O)OC(C)(C)C)c1Cc1cc(C)cc(C)c1
12,> 10 µM,CCc1c(C)[nH]c(=O)c(NC(=O)CCCCCCCCC(=O)OC)c1Cc1cc(C)cc(C)c1
13,0.017 µM,"CCc1c(C)[nH]c(=O)c(N)c1Cc1cc(C)cc(C)c1 [3-amino-4-[(3,5-dimethylphenyl)methyl]-5-ethyl-6-methyl-1,2-dihydropyridin-2-one]"
14,24 µM,CCc1c(C)[nH]c(=O)c(NC(=O)CCCC(=O)OC)c1Cc1cc(C)cc(C)c1
15,3.3 µM,CCc1c(Sc2cc(C)cc(C)c2)n(CCCCC(=O)NCCCCNC(=O)CCc2cn(C3CC(N=[N+]=[N-])C(CO)O3)c(=O)[nH]c2=O)c(=O)[nH]c1=O (configuration not stated)
16,7.8 µM,NCCCCCCCCCCCCNc1ccn(C2CCC(CO)O2)c(=O)n1 (configuration not stated)
17,> 100 µM,COC(=O)CCCNC(=O)CCc1cn(C2CC(N=[N+]=[N-])C(CO)O2)c(=O)[nH]c1=O (configuration not stated)
18,0.002 µM,"Cc1cn([C@H]2C[C@H](N=[N+]=[N-])[C@@H](CO)O2)c(=O)[nH]c1=O [1-((2R,4S,5S)-4-Azido-5-hydroxymethyl-tetrahydro-furan-2-yl)-5-methyl-1H-pyrimidine-2,4-dione]"
19,3.2 µM,CCc1c(C)[nH]c(=O)c(NC(=O)CNC(=O)CNC(=O)OC(C)(C)C)c1Cc1cc(C)cc(C)c1
20,0.72 µM,CCc1c(C)[nH]c(=O)c(NC(=O)CNC(=O)CN)c1Cc1cc(C)cc(C)c1
21,20 µM,[N-]=[N+]=NC1CC(n2cc(CCC(=O)NCCCCCCCCCCN)c(=O)[nH]c2=O)OC1CO (configuration not stated)
22,1.7 µM,CCc1c(Sc2cc(C)cc(C)c2)n(CCCCC(=O)NCCCCCCCCCCNC(=O)CCc2cn(C3CC(N=[N+]=[N-])C(CO)O3)c(=O)[nH]c2=O)c(=O)[nH]c1=O (configuration not stated)
